Experimental data as given in patent US20110243958A1, “ANTIMICROBIAL AGENTS THAT TARGET BACTERIAL VKOR” (priority 2008, published 2011).
≈ marks a conversion by molar mass, not a printed value. Entries after “also recorded” stand apart in the source; their conditions may differ.

Legend:
[1] = in animals; cited from earlier work
[2] = system: some species of mycobacteria; conditions: cited from earlier work
[3] = target: T1, M. tuberculosis VKOR (MtbVKOR) (Mycobacterium tuberculosis, UniProt I6X5W1); type: cell-based
T1 sequence (I6X5W1 1-210): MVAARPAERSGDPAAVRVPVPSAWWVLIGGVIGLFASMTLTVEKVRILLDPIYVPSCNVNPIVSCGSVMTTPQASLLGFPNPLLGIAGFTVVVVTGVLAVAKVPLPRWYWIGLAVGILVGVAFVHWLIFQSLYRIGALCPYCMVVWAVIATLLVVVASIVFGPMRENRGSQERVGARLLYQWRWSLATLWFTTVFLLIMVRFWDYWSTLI

[4] = target: T1, M. tuberculosis VKOR (MtbVKOR); type: cell-based; remark: listed apart in the source
M. smegmatis = assay: microbe, parasite or virus in culture; type: cell-based, Mycobacterium smegmatis; conditions: for growth of M. smegmatis culture: addition to culture

Row | SMILES | anti-coagulant properties [1] | growth of mycobacteria [2] | disulfide bond formation / VKOR activity [3] | levels necessary to inhibit VKOR activity in E. coli [3] | activity of β-galactosidase (increase indicates inhibition of disulfide bond formation) [4] | levels necessary to inhibit growth in Msmeg (M. smegmatis) | MIC (M. smegmatis; Mycolicibacterium smegmatis, M. smegmatis grown in Middlebrook 7H9 medium (defined medium), alamar blue assay, read-out: minimal inhibitory concentration) | growth of M. smegmatis culture (M. smegmatis)
1 | CC(C)=CCC/C(C)=C/CC/C(C)=C/Cc1c(O)c2ccccc2oc1=O [ferulenol] | has anti-coagulant properties | inhibit the growth |  |  |  |  |  | 
2 | CC(=O)CC(c1ccccc1)c1c(O)c2ccccc2oc1=O (stereo not drawn) [warfarin] |  |  | inhibit the tuberculosis VKOR activity; also recorded: inhibit disulfide bond formation | high (millimolar concs.) | significantly increased | high (millimolar concs.) | 4.5 mM (≈ 1390 µg/mL) | caused inhibition of growth
3 | CC(=O)CC(c1ccccc1)c1c(O)c2ccccc2oc1=O (stereo not drawn) [sodium warfarin] |  |  |  |  |  |  |  | inhibits growth
